These results are taken from PubChem BioAssay (NCI).

Several values for one entry are separate records, joined by “and”; a condition that tells them apart may be missing. Equal entries are not always repeated.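 In this assay, cells in 96-well plates receive the compound at five concentrations for 48 hours. Endpoints are linearly interpolated between the surrounding concentrations. Abbreviation: GI50, concentration required for 50% inhibition of growth. Definition used: TGI = concentration required for complete inhibition of growth.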 Bounds are passed on as bounds.

Some test systems named below: IGROV1 ovarian; MALME-3M melanoma; MOLT-4 leukemia; RPMI-8226 leukemia; RXF 393 renal; SN12C renal; SR leukemia; SW-620 colon; U251 CNS; UO-31 renal.
Assay in all cases: DTP human tumour cell line panel, 48 h

Regarding `O=C(Nc1ccc([N+](=O)[O-])cc1)c1cc2ccccc2cc1O`, the GI50 with IGROV1 ovarian was 0.575 µM; in the assay with MALME-3M melanoma it was 0.258 µM; in the assay with MOLT-4 leukemia, 0.675 µM; in the assay on RPMI-8226 leukemia it was 0.291 µM; with RXF 393 renal, 0.34 µM; in the assay on SN12C renal it was 0.348 µM. The GI50 in the assay with SR leukemia was 0.274 µM; in the assay on SW-620 colon, 0.477 µM; in the assay with U251 CNS, 0.36 µM; with UO-31 renal, 0.294 µM. Also, the concentration for total growth inhibition (TGI) with IGROV1 ovarian was 12.5 µM; in the assay with MALME-3M melanoma, 1.11 µM; in the assay with MOLT-4 leukemia, > 21.1 µM; in the assay with RPMI-8226 leukemia, 0.727 µM; with RXF 393 renal it was 1.26 µM; in the assay on SN12C renal, 5.92 µM. For the same molecule, the TGI with SR leukemia is 1.05 µM; with SW-620 colon, > 27.5 µM; in the assay on U251 CNS it was 13.1 µM; with UO-31 renal, 1.15 µM.
`Cc1sc2c(c1C)C(c1ccc(Cl)cc1)=N[C@@H](CC(=O)Nc1ccc(O)cc1)c1nnc(C)n1-2`: the GI50 in the assay with IGROV1 ovarian was 2.5 µM; in the assay with MALME-3M melanoma it was 12.5 µM; in the assay with MOLT-4 leukemia, 3.85 µM; with RPMI-8226 leukemia, 0.168 µM; in the assay with RXF 393 renal, 1.79 µM; in the assay with SN12C renal it was 9.41 µM. The concentration for 50% growth inhibition (GI50) is 0.344 µM in the assay on SR leukemia, 10.6 µM in the assay on SW-620 colon, 3.78 µM in the assay on U251 CNS and 0.151 µM in the assay with UO-31 renal. In addition, the TGI came to 39.9 µM in the assay with IGROV1 ovarian; 33.4 µM in the assay on MALME-3M melanoma; 54.7 µM in the assay on MOLT-4 leukemia; 11.8 µM with RPMI-8226 leukemia; 15.5 µM in the assay on RXF 393 renal; 30.7 µM in the assay with SN12C renal. In addition, the TGI with SR leukemia was 28.6 µM; in the assay on SW-620 colon it was 32 µM; in the assay with U251 CNS, 21.7 µM; with UO-31 renal it was 15.4 µM.
For the molecule `OCCCCC#Cc1ccccc1C#Cc1cccs1`, the GI50 in the assay on IGROV1 ovarian is 16.5 µM; with MALME-3M melanoma, 22.8 µM; in the assay with MOLT-4 leukemia it was 18.8 µM; in the assay on RPMI-8226 leukemia, 22 µM; in the assay on RXF 393 renal it was 15.8 µM; in the assay with SN12C renal, 16.3 µM. Also, the GI50 is 1.85 µM with SR leukemia, 15.9 µM in the assay with SW-620 colon, 13.9 µM in the assay with U251 CNS and 16.9 µM with UO-31 renal. Besides, the TGI in the assay on IGROV1 ovarian came out at 30.5 µM; with MALME-3M melanoma it was 55.4 µM; in the assay on MOLT-4 leukemia, 40.3 µM; in the assay on RPMI-8226 leukemia, 71 µM; in the assay with RXF 393 renal, 30.3 µM; in the assay on SN12C renal it was 31.7 µM. Moreover, the TGI with SR leukemia came to 14.5 µM; in the assay with SW-620 colon it was 30.6 µM; in the assay with U251 CNS, 27 µM; in the assay with UO-31 renal, 30.6 µM.
On to `CN(C)CCN1C(=O)c2cccc3c(-c4ccc5ncn(C6CCCCC6)c5c4)ccc(c23)C1=O`, for which the GI50 in the assay on IGROV1 ovarian is 1.12 µM; with MALME-3M melanoma, 1.9 µM; in the assay on MOLT-4 leukemia, 0.446 µM; with RPMI-8226 leukemia, 1.03 µM; with RXF 393 renal, 1.35 µM; with SN12C renal it was 1.03 µM. In addition, the GI50 with SR leukemia is 0.496 µM; in the assay on SW-620 colon it was 1.06 µM; in the assay with U251 CNS, 2 µM; with UO-31 renal, 1.06 µM. Also, the TGI amounted to 5.86 µM in the assay on IGROV1 ovarian; 3.93 µM in the assay with MALME-3M melanoma; 10.1 µM in the assay with MOLT-4 leukemia; 6.1 µM with RPMI-8226 leukemia; 2.96 µM in the assay with RXF 393 renal; 12.1 µM with SN12C renal. For the same molecule, the TGI with SR leukemia came out at 5.47 µM; with SW-620 colon, 11 µM; in the assay on U251 CNS it was 11.5 µM; with UO-31 renal it was 2.4 µM.
As to `COc1cc(/C=N/O)nc(-c2ccccn2)c1`, the GI50 in the assay with IGROV1 ovarian is 0.349 µM; with MALME-3M melanoma, 0.431 µM; in the assay with MOLT-4 leukemia, 0.281 µM; in the assay with RXF 393 renal, 0.723 µM; with SN12C renal, 0.434 µM; in the assay on SR leukemia it was 0.284 µM. Moreover, the GI50 in the assay with SW-620 colon was 0.415 µM; with U251 CNS it was 0.374 µM; in the assay on UO-31 renal, 0.183 µM. The TGI was 24.1 µM in the assay with IGROV1 ovarian; 12.2 µM in the assay on MALME-3M melanoma; 25.1 µM with MOLT-4 leukemia; > 100 µM with RPMI-8226 leukemia; 14.8 µM in the assay on RXF 393 renal; > 44.7 µM with SN12C renal. For the same molecule, the TGI in the assay with SR leukemia was 22.2 µM; in the assay on SW-620 colon, > 100 µM; with U251 CNS, > 100 µM; in the assay on UO-31 renal it was 6.82 µM.
In the case of `CCCCc1oc2ccccc2c1C(=O)c1cc(I)c(OCCN(CC)CC)c(I)c1`, the GI50 was 4.66 µM with IGROV1 ovarian; 1.86 µM in the assay on MALME-3M melanoma; 1.92 µM in the assay with MOLT-4 leukemia; 1.92 µM in the assay on RPMI-8226 leukemia; 1.26 µM in the assay on RXF 393 renal; 3.08 µM in the assay with SN12C renal. In addition, the GI50 is 1.68 µM in the assay on SR leukemia; 1.76 µM with SW-620 colon; 1.57 µM in the assay on U251 CNS; 2.54 µM and 7.07 µM in the assay on UO-31 renal. Moreover, the TGI in the assay with MALME-3M melanoma is 3.71 µM and 8.57 µM; in the assay with MOLT-4 leukemia it was 4.27 µM and 7.8 µM; with RPMI-8226 leukemia it was 4.91 µM and 9.09 µM; with RXF 393 renal it was 2.97 µM and 8.79 µM; in the assay on SN12C renal, 14.8 µM and 27.9 µM; in the assay with SR leukemia, 4.24 µM. The TGI was 4.13 µM and 9.18 µM with SW-620 colon; 3 µM and 7.73 µM in the assay with U251 CNS; 13.2 µM and 28.4 µM with UO-31 renal.
With `O=C1/C(=C/c2ccc(C(F)(F)F)cc2)COc2ccc(O)cc21`, the GI50 in the assay with IGROV1 ovarian is 1.6 µM; in the assay on MALME-3M melanoma, 2.05 µM; in the assay with MOLT-4 leukemia it was 2.33 µM; in the assay on RPMI-8226 leukemia, 0.29 µM; in the assay on RXF 393 renal, 1.74 µM; in the assay with SN12C renal, 1.73 µM. The GI50 is 1.21 µM with SR leukemia, 1.71 µM with SW-620 colon, 1.66 µM in the assay on U251 CNS and 1.26 µM in the assay on UO-31 renal. Also, the TGI in the assay with IGROV1 ovarian amounted to 3.17 µM; in the assay with MALME-3M melanoma, 5.1 µM; in the assay with MOLT-4 leukemia, 21.2 µM; in the assay with RPMI-8226 leukemia it was 0.885 µM; in the assay on RXF 393 renal, 3.48 µM; with SN12C renal, 3.46 µM. The TGI in the assay on SR leukemia came to 10.6 µM; in the assay with SW-620 colon, 3.4 µM; in the assay on U251 CNS it was 3.06 µM; with UO-31 renal, 2.67 µM.
With `CC(=O)NNc1nc(C)c(C(/C=C/c2ccc(Cl)cc2)=N/NC(=S)NN)s1`, the TGI in the assay with IGROV1 ovarian, in the assay on MALME-3M melanoma, with MOLT-4 leukemia, in the assay with RPMI-8226 leukemia, with RXF 393 renal and with SN12C renal was > 100 µM throughout. Besides, the concentration for total growth inhibition (TGI) with SR leukemia, in the assay with SW-620 colon, with U251 CNS and with UO-31 renal was > 100 µM throughout.
